# Test results: patent publication US20260076909A1, “SOLID COMPOSITION AND METHOD FOR PRODUCING THE SAME” (DKS Co. Ltd., priority 2022, published 2026)
# Assays:
# [1] = Oral absorption evaluation: animal experiment; assay type: in vivo; settings: male SD rats, 30 mg/kg in terms of cannabidiol, 0.5-24 hours, highest AUC of three rats
# Experimental: Of the three rats, data of the highest AUC was employed.
# In the LC-MS/MS measurement, as a pre-treatment, 20 μL of the plasma sample and 80 μL of methanol were placed into an Eppendorf tube and suspended for deproteinization. After the proteins were precipitated in a centrifuge, the supernatant was subjected to centrifugal filtration using a filter (manufactured by Millipore, Ultrafree-MC, Hydrophilic PTFE membrane, 0.2 μm). This solution and ultrapure water were mixed together in 1:1 (mass ratio), and used as the measurement sample. The measurement conditions of LC-MS/MS were column: octadecylsilyl column, ion source: ESI+, mobile phase: solution mixture of methanol/10 mM aqueous ammonium formate solution.
# The solid composition of Example 5 was evaluated for oral absorption by an animal experiment similar to that for the solid composition of Example 3. Specifically, while the powder composed only of cannabidiol in Comparative Example 1 was used as the control, the animal experiment was performed in accordance with the above-described oral absorption evaluation method.
# [2] = Dissolution test 2; assay type: physicochemical; settings: composition with 0.4 mg cannabidiol in 45 g ion-exchanged water, 0.45 μm filtrate
# Experimental: In a 50 mL screw vial, such a solid composition including 0.4 mg of cannabidiol was dissolved in 45 g of ion-exchanged water. The resultant solution was filtered through a 0.45 μm membrane filter; the filtrate was diluted two-fold with ethanol and further filtered through a 0.20 μm membrane filter; HPLC was performed to quantify the cannabidiol. The value was rounded to two decimal places to determine the dissolution amount. The 0.45 μm membrane filter, the 0.20 μm membrane filter, and the HPLC conditions were as described in the dissolution test 1.
# [3] = Amorphization evaluation: XRD; assay type: physicochemical
# Experimental: A “RINT UltimaIII horizontal goniometer (D/teX-25)” manufactured by Rigaku Corporation was used to obtain the XRD chart of such a solid composition. The XRD measurement conditions were the focusing method, X-ray: Cu/40 kV/40 mA, scanning range: 3.0° to 50.0°, and scanning axis: 2θ/θ.
# [4] = Dissolution test 1: dissolution amount; assay type: physicochemical; settings: cannabidiol; 8 mg in capsule, 900 mL ion-exchanged water, 37° C., 0.45 μm filtrate
# Experimental: As the dissolution testing apparatus, an “NTR-6600AST” manufactured by Toyama Sangyo Co., Ltd. was used; the vessel was charged with 900 mL of ion-exchanged water; for the purpose of degassing, the water was stirred overnight at a water temperature of 37° C.±0.2° C. A gelatin capsule (“HF capsule” manufactured by Matsuya Corporation) filled with the solid composition containing 8 mg of the cannabidiol was placed into a sinker, and immersed into the vessel. After a lapse of a predetermined time, sampling was performed in the vessel and the sample was filtered through a 0.45 μm membrane filter. […] The filtrate was diluted two-fold with ethanol and filtered through a 0.20 μm membrane filter; HPLC was performed to quantify the cannabidiol. For each solid composition, two samples were tested and the resultant values were averaged; the average was rounded to two decimal places to determine the dissolution amount.
# The 0.45 μm membrane filter employed was “25HP045AN” (filter material: PTFE, pore size: 0.45 μm) manufactured by ADVANTEC. The 0.20 μm membrane filter employed was “13HP020AN” (filter material: PTFE, pore size: 0.20 μm) manufactured by ADVANTEC.
# The HPLC conditions were column: octadecylsilyl column, solvent: mixed solution of acetonitrile/10 mM aqueous ammonium acetate solution, and wavelength: 210 nm. […]
compound,measurement,setting,value
"C=C(C)[C@@H]1CCC(C)=C[C@H]1c1c(O)cc(CCCCC)cc1O [Comparative Example 1, cannabidiol]",AUC (area under the blood concentration time curve) of the cannabidiol,[1]; 30 mg/kg,665 ng·h/mL
same,AUC,"[1]; rat, plasma, read-out: AUC (area under the blood concentration time curve) of the cannabidiol",812 ng·h/mL
same,Dissolution test 2 dissolution amount,[2],0.03 µg/mL
same,Form of the cannabinoid from the XRD chart (in words),[3],crystalline state
same,Dissolution amount after lapse of 120 minutes,[4],0.01 µg/mL
same,Dissolution amount after lapse of 240 minutes,[4],0.01 µg/mL
